What was measured:
CDK9/CycT1 = target: T1, CDK9/CycT1 (Homo sapiens, UniProt P50750); assay: CDK9/CycT1 high ATP kinase assay (Method 1b); assay type: biochemical; conditions: 2 mM ATP
T1 construct: Recombinant full-length His-tagged human CDK9 and CycT1; His; purchased Invitrogen PV4131; host or cells: insect cells
Experimental: 1b. CDK9/CycT1 High ATP Kinase Assay
CDK9/CycT1-inhibitory activity of compounds of the present invention at a high ATP concentration after preincubation of enzyme and test compounds was quantified employing the CDK9/CycT1 TR-FRET assay as described in the following paragraphs.
Recombinant full-length His-tagged human CDK9 and CycT1, expressed in insect cells and purified by Ni-NTA affinity chromatography, were purchase from Invitrogen (Cat. No PV4131). As substrate for the kinase reaction biotinylated peptide biotin-Ttds-YISPLKSPYKISEG (C-terminus in amid form) was used which can be purchased e.g. form the company JERINI peptide technologies (Berlin, Germany).
For the assay 50 nl of a 100 fold concentrated solution of the test compound in DMSO was pipetted into a black low volume 384 well microtiter plate (Greiner Bio-One, Frickenhausen, Germany), 2 μl of a solution of CDK9/CycT1 in aqueous assay buffer [50 mM Tris/HCl pH 8.0, 10 mM MgCl2, 1.0 mM dithiothreitol, 0.1 mM sodium ortho-vanadate, 0.01% (v/v) Nonidet-P40 (Sigma)] were added and the mixture was incubated for 15 min at 22° C. to allow pre-binding of the test compounds to the enzyme before the start of the kinase reaction. Then the kinase reaction was started by the addition of 3 μl of a solution of adenosine-tri-phosphate (ATP, 3.3 mM=>final conc. in the 5 μl assay volume is 2 mM) and substrate (1.67 μM=>final conc. in the 5 μl assay volume is 1 μM) in assay buffer and the resulting mixture was incubated for a reaction time of 25 min at 22° C. The concentration of CDK9/CycT1 was adjusted depending of the activity of the enzyme lot and was chosen appropriate to have the assay in the linear range, typical concentrations were in the range of 0.5 μg/ml. The reaction was stopped by the addition of 5 μl of a solution of TR-FRET detection reagents (0.2 μM streptavidine-XL665 [Cisbio Bioassays, Codolet, France] and 1 nM anti-RB(pSer807/pSer811)-antibody from BD Pharmingen [#558389] and 1.2 nM LANCE EU-W1024 labeled anti-mouse IgG antibody [Perkin-Elmer, product no. AD0077]) in an aqueous EDTA-solution (100 mM EDTA, 0.2% (w/v) bovine serum albumin in 100 mM HEPES/NaOH pH 7.0).
The resulting mixture was incubated 1 h at 22° C. to allow the formation of complex between the phosphorylated biotinylated peptide and the detection reagents. Subsequently the amount of phosphorylated substrate was evaluated by measurement of the resonance energy transfer from the Eu-chelate to the streptavidine-XL. Therefore, the fluorescence emissions at 620 nm and 665 nm after excitation at 350 nm was measured in a HTRF reader, e.g. a Rubystar (BMG Labtechnologies, Offenburg, Germany) or a Viewlux (Perkin-Elmer). The ratio of the emissions at 665 nm and at […] was taken as the measure for the amount of phosphorylated substrate. The data were normalised (enzyme reaction without inhibitor=0% inhibition, all other assay components but no enzyme=100% inhibition).

HeLa cells = assay: Proliferation assay, HeLa (Method 3); assay type: cell-based, human; conditions: Homo sapiens, HeLa, 96 h, 4 days, crystal violet; read-out: Inhibition of HeLa cell proliferation IC50
Experimental: Cultivated tumour cells (HeLa, human cervical tumour cells, ATCC CCL-2; NCI-H460, human non-small cell lung carcinoma cells, ATCC HTB-177; A2780, human ovarian carcinoma cells, ECACC #93112519; DU 145, hormone-independent human prostate carcinoma cells, ATCC HTB-81; HeLa-MaTu-ADR, multidrug-resistant human cervical carcinoma cells, EPO-GmbH Berlin; Caco-2, human colorectal carcinoma cells, ATCC HTB-37; B16F10, mouse melanoma cells, ATCC CRL-6475) were plated at a density of 5,000 cells/well (DU145, HeLa-MaTu-ADR), 3,000 cells/well (NCI-H460, HeLa), 2,500 cells/well (A2780), 1,500 cells/well (Caco-2), or 1,000 cells/well (B16F10) in a 96-well multititer plate in 200 μL of their respective growth medium supplemented 10% fetal calf serum. After 24 hours, the cells of one plate (zero-point plate) were stained with crystal violet (see below), while the medium of the other plates was replaced by fresh culture medium (200 μl), to which the test substances were added in various concentrations (0 μM, as well as in the range of 0.001-10 μM; the final concentration of the solvent dimethyl sulfoxide was 0.5%). The cells were incubated for 4 days in the presence of test substances. Cell proliferation was determined by staining the cells with crystal violet: the cells were fixed by adding 20 μl/measuring point of an 11% glutaric aldehyde solution for 15 minutes at room temperature. After three washing cycles of the fixed cells with water, the plates were dried at room temperature. The cells were stained by adding 100 μl/measuring point of a 0.1% crystal violet solution (pH 3.0). After three washing cycles of the stained cells with water, the plates were dried at room temperature. The dye was dissolved by adding 100 μl/measuring point of a 10% acetic acid solution. The extinction was determined by photometry at a wavelength of 595 nm. The change of cell number, in percent, was calculated by normalization of the measured values to the extinction values of the zero-point plate (=0%) and the extinction of the untreated (0 μm) cells (=100%). The IC50 values (inhibitory concentration at 50% of maximal effect) were determined by means of a 4 parameter fit.

T1 sequence (P50750 whole entry): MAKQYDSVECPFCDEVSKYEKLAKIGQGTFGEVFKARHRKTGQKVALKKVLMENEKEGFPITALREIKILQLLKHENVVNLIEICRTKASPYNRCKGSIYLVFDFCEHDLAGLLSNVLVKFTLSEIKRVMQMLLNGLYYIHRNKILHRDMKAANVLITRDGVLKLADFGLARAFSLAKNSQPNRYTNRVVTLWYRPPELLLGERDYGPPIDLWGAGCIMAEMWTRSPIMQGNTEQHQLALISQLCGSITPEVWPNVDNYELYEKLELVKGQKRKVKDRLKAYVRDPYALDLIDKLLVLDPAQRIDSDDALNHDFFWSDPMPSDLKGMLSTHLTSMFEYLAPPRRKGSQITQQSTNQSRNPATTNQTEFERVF
T1 sequence (O60563 whole entry partner): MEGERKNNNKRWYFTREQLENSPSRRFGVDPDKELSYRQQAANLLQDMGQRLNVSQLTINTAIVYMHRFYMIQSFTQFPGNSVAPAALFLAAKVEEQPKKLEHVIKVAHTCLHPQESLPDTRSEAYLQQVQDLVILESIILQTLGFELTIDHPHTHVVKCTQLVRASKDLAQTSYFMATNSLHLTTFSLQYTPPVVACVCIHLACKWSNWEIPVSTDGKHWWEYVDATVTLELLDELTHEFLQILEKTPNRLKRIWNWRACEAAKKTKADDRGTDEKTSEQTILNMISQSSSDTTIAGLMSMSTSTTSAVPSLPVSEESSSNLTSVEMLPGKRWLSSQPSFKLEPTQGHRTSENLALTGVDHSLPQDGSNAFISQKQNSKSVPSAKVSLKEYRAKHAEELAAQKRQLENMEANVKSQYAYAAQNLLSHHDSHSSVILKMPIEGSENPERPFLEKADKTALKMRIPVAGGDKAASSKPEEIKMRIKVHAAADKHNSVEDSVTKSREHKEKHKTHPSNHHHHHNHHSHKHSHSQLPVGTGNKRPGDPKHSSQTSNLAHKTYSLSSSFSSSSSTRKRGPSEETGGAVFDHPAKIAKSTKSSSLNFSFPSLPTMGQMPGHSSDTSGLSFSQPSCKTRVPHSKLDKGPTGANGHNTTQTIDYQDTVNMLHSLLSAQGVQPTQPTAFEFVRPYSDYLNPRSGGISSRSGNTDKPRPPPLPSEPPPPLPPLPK

CCS(=N)(=O)Cc1ccnc(Nc2cc(-c3ccc(F)cc3OC)ncn2)c1 (racemic) [Example 11, (rac)-N-{4-[(S-Ethylsulfonimidoyl)methyl]pyridin-2-yl}-6-(4-fluoro-2-methoxyphenyl)pyrimidin-4-amine]
IC50 (CDK9/CycT1): 194 nM
IC50 (HeLa cells): 338 nM

Source: patent US9650361B2, “N-(pyridin-2-yl)pyrimidin-4-amine derivatives containing a sulfoximine group” (BAYER PHARAM AKTIENGESELLSCHAFT, priority 2012, dated 2017)
